Source: US8357676B2, “Ansamycin formulations and methods of use thereof” (Infinity Discovery, Inc., priority 2006, dated 2013)
In brackets after ≈: the same amount, converted by molar mass. Read-outs that look alike come from different tables or passages of the source. Blank lines part the entries; values can stand above or below the compound they belong to.

What was measured:
[1] = Equilibrium solubility in SIF; assay type: physicochemical; conditions: for solubility: 37 °C; for Crystalline 17-AG Equilibrium Solubility: average values
Method: Solutions were placed at 37° C., and sample aliquots were removed at 24, 48, 72, & 96 hours. Sample aliquots were filtered (0.45 uM PVDF), diluted in SIF/MeOH and measured in triplicate on UV spectrometer.

[2] = In vitro dissolution of amorphous solid dispersions in simulated intestinal fluid at 37° C.; assay type: physicochemical
Method: […] To each vial was added simulated intestinal fluid (5 mL) and each was shaken at 37° C. […] The samples were then diluted in MeOH and tested using UV method for solution concentration.

[3] = test system: H1975, a non-small cell lung cancer cell line; experiment: H1975 mouse xenograph tumor model; assay type: in vivo, Nu/Nu mice; conditions: 5% DMSO, 75% NS, oral gavage every other day
Method: In the first study, H1975, a non-small cell lung cancer cell line which contains L858R and T790M mutations in EGFR, a client protein for HSP90 was utilized. 5-6 week old Nu/Nu mice were implanted with 10×10e6H1975 cells. Dosing commenced after implanted cells reached ˜150 mm3. Dosing was by oral gavage and the dosing schedule was every other day with vehicle (20% PGHS, 5% DMSO, 75% NS), and 75 mg/kg, and 100 mg/kg 17-AG in vehicle.

[4] = Supersaturated levels of 17-AG in SIF pH 6.8 with PVP (DMSO stock diluted 1:100); assay type: physicochemical; conditions: for 17-AG Supersaturated Concentration: 37° C., average values
Method: Supersaturated levels of 17-AG was measured by adding 17-AG DMSO stock solutions (10, 50, 100, & 200 mg/ml) at a 1:100 dilution to SIF pH 6.8 solutions containing 0%, 0.5%, 1%, 2.5%, & 5% PVP (w/v). […] Solutions were stirred in a dissolution apparatus (Paddle speed 150 RPM, 37° C.), and aliquots of each solution were removed at 15, 30, 60, 120, 240, 360, & 1320 minute time points. Sample aliquots were filtered (0.45 uM PVDF), diluted in SIF/MeOH and measured in triplicate on UV spectrometer. Representative data are found in FIG. 25 and FIG. 26.

[5] = test system: H1650 lung adenocarcinoma cell line; experiment: H1650 mouse xenograph tumor model; assay type: in vivo, Nu/Nu mice; conditions: 50, 75 and 100 mg/kg 17-AG in 15% PVP, 5% EtOH, 80% PG, oral gavage every day
Method: In the second study, H1650 lung adenocarcinoma cell line which contains a mutant form of EGFR (Del E746-A750) was utilized. 5-6 week old Nu/Nu mice were implanted with 10×10e6H1650 cells. Dosing commenced after implanted cells reached ˜100 mm3. Dosing was by oral gavage and the dosing schedule was every day with vehicle (15% PVP, 5% EtOH, 80% PG), and 50 mg/kg, 75 mg/kg, and 100 mg/kg 17-AG in vehicle.

[6] = Oral bioavailability of amorphous 17-AG/PVP dispersion vs crystalline 17-AG, single oral capsule dose; assay type: in vivo; conditions: 15 mg/kg, beagle dogs
Method: A 12% 17-AG/PVP (w/w) dispersion was made utilizing rotary evaporation and characterized for purity, residual solvent level, and amorphous content as described, filled into HPMC capsules and dosed into dogs at a level of 15 mg/kg. Blood was collected pre-dose, at 15 minutes, at 30 minutes, 1 hour, 2 hours, 4 hours, 6 hours, 12 hours, and 24 hours post dose into tubes containing sodium heparin. Collected blood samples were immediately placed on wet ice and refrigerated centrifuge for isolation of plasma within 30 min of collection. Isolated plasma was saved in labeled screw cap freezer vials or eppendorf tubes and stored frozen (−70° C.) until analyzed for plasma 17-AG levels. The design of the study is as follows. A single group of dogs consisting of 2 males & 2 females was utilized for dosing, with a week washout in between each dose.

[7] = In vivo exposure of various oral formulations of 17-AG, single oral dose; conditions: female beagle dogs
Method: The oral bioavailability of various formulations of the compound 17-AG was investigated by making various oral formulations, dosing beagle dogs and measuring 17-AG levels in blood plasma at various time points following a single oral dose. In addition, the effect of PVP on enhancing exposure was investigated by its addition to many of the tested formulations.
In brief, different crystalline, solvated, and amorphous forms of 17-AG were dosed either as filled capsules or as suspensions. In addition, various 17-AG solutions utilizing a range of different organic, anionic, & non-ionic components were dosed by oral gavage.
The crystalline, solvated, and amorphous forms of 17-AG were made as previously described and blended with either anhydrous lactose or PVP in a Turbula blender for 15 minutes. […]
The nanosuspension was made by levigating crystalline 17-AG by high shear in a microfluidizer (Microfluidics Corp, Model: M-110L) for 10-20 minutes in Tween-80. Mean particle size (d50: […]) was measured by laser light diffraction (Malvern Corp, Mastersizer 2000).
Blood was collected pre-dose, 15, 30 minutes, 1, 2, 4, and 8 hours post-dose into tubes containing sodium heparin. […] Isolated plasma was saved in labeled screw cap freezer vials or eppendorf tubes and stored frozen (−70° C.) until analyzed for plasma 17-AG levels. […]

[8] = simulated intestinal fluid (SIF), pH 6.8, fassgf or other biorelevant, thermodynamic from solid, read-out: Eq. Solubility of active
[9] = 12% load analog in PVP K-30 amorphous dispersion, target conc 2 mg/mL, SIF 37° C., t = 5 min
[10] = 12% load analog in PVP K-30 dispersion, SIF 37° C., t = 5 min

SMILES: CO[C@H]1C[C@H](C)CC2=C(N)C(=O)C=C(NC(=O)/C(C)=C/C=C\[C@H](OC)[C@@H](OC(N)=O)/C(C)=C/[C@H](C)C1OC(C)=O)C2=O (stereo partly drawn) [11-acetyl-17-AG, 11-acetyl-17-aminogeldanamycin]
solubility [1, 8]: 88 µg/mL (≈ 150 µM) | Supersaturated concentration of analog/polymer dispersions in SIF at 37° C. (t = 5 min) [2, 9]: 0.167 mg/ml | Fold increase relative to equilibrium solubility [2, 10]: 2 x

SMILES: COC1CC(C)CC2=C(N)C(=O)C=C(NC(=O)C(C)=CC=CC(OC)C(OC(N)=O)C(C)=CC(C)C1=O)C2=O (stereo not drawn) [11-oxo-17-AG, 11-oxo-17-aminogeldanamycin]
Eq. Solubility of active ([1]; pH 6.8): 330 µg/mL | Supersaturated concentration of analog/polymer dispersions in SIF at 37° C. (t = 5 min) [2, 9]: 0.395 mg/ml | Fold increase relative to equilibrium solubility [2, 10]: 0 x

SMILES: CO[C@H]1/C=C\C=C(/C)C(=O)NC2=CC(=O)C(N)=C(C[C@@H](C)C[C@H](OC)[C@H](O)[C@@H](C)/C=C(\C)[C@@H]1OC(N)=O)C2=O [17-AG, 17-amino-geldanamycin]
reduction in tumor volume as compared to vehicle treated animals ([3]; 75 mg/kg 17-AG in 20% PGHS): ~35% | reduction in tumor volume as compared to vehicle treated animals ([3]; 100 mg/kg 17-AG in 20% PGHS): ~70% | time at which 17-AG starts to precipitate out ([4]; 1.0 mg/ml solution in 5% PVP): 120 min | 17-AG Supersaturated Concentration ([4]; SIF pH 6.8, 0% PVP): 0.5 mg/mL | 17-AG Supersaturated Concentration ([4]; SIF pH 6.8, 0.5% PVP): 0.6 mg/mL | 17-AG Supersaturated Concentration ([4]; SIF pH 6.8, 1.0% PVP): 0.7 mg/mL | increase of degree of supersaturation of 17-AG ([4]; SIF pH 6.8, 5% PVP vs 0% PVP): ~2 fold | 17-AG Supersaturated Concentration ([4]; SIF pH 6.8, 5.0% PVP): 0.9 mg/mL | time at which 17-AG starts to precipitate and come out of solution ([4]; SIF without PVP): approximately 120 minutes | solubility ([1]; simulated intestinal fluid (SIF), pH 6.8, fassgf or other biorelevant, thermodynamic from solid): 4 µg/mL (≈ 7.33 µM) | solubility thermodynamic ([1]; simulated intestinal fluid (SIF), pH 6.8, fassgf or other biorelevant, thermodynamic from solid, SIF, 37° C., read-out: Equilibrium solubility of 17-AG in SIF @ 37° C.): 4 µg/mL (≈ 7.33 µM) | Supersaturated concentration of analog/polymer dispersions in SIF at 37° C. (t = 5 min) [2, 9]: 0.712 mg/ml | Fold increase relative to equilibrium solubility [2, 10]: 200 x | maximum reduction in tumor volume as compared to vehicle treated animals [5]: 62%

SMILES: CO[C@H]1/C=C\C=C(/C)C(=O)NC2=CC(=O)C(NC(C)=O)=C(C[C@@H](C)C[C@H](OC)[C@H](O)[C@@H](C)/C=C(\C)[C@@H]1OC(N)=O)C2=O [17-acetyl-AG, 17-acetylgeldanamycin]
solubility [1, 8]: 350 µg/mL (≈ 596 µM) | Supersaturated concentration of analog/polymer dispersions in SIF at 37° C. (t = 5 min) [2, 9]: 1.568 mg/ml | Fold increase relative to equilibrium solubility [2, 10]: ≥ 5 x

solubility [1, 8]: 140 µg/mL (≈ 239 µM) | Supersaturated concentration of analog/polymer dispersions in SIF at 37° C. (t = 5 min) [2, 9]: 0.167 mg/ml | Fold increase relative to equilibrium solubility [2, 10]: 0 x
SMILES: CO[C@H]1/C=C\C=C(/C)C(=O)NC2=CC(=O)C(N3CCC3)=C(C[C@@H](C)C[C@H](OC)[C@H](O)[C@@H](C)/C=C(\C)[C@@H]1OC(N)=O)C2=O [17-azetidinyl-G, 17-azetidinylgeldanamycin]

SMILES: CO[C@H]1/C=C\C=C(/C)C(=O)NC2=CC(=O)C(NCc3ccccc3)=C(C[C@@H](C)C[C@H](OC)[C@H](O)[C@@H](C)/C=C(\C)[C@@H]1OC(N)=O)C2=O [17-benzyl-AG, 17-benzylaminogeldanamycin]
solubility [1, 8]: 15 µg/mL (≈ 23.6 µM) | Supersaturated concentration of analog/polymer dispersions in SIF at 37° C. (t = 5 min) [2]: 0.165 mg/ml (10x) | Supersaturated concentration in SIF at 5 min ([2]; 12% load analog in PVP K-30 dispersion, SIF 37° C., t = 5 min, the values are: supersaturated concentration in SIF at 5 min): 0.165 mg/mL

solubility [1, 8]: 34 µg/mL (≈ 56.7 µM) | Supersaturated concentration of analog/polymer dispersions in SIF at 37° C. (t = 5 min) [2, 9]: 0.0573 mg/ml | Fold increase relative to equilibrium solubility [2, 10]: 2 x
SMILES: CO[C@H]1/C=C\C=C(/C)C(=O)NC2=CC(=O)C(NCC3CC3)=C(C[C@@H](C)C[C@H](OC)[C@H](O)[C@@H](C)/C=C(\C)[C@@H]1OC(N)=O)C2=O [17-cyclopropylmethyl-AG, 17-cyclopropylmethylaminogeldanamycin]

SMILES: CO[C@H]1/C=C\C=C(/C)C(=O)NC2=CC(=O)C(NCCF)=C(C[C@@H](C)C[C@H](OC)[C@H](O)[C@@H](C)/C=C(\C)[C@@H]1OC(N)=O)C2=O [17-fluoroethyl-AG, 17-(fluoroethyl)aminogeldanamycin]
solubility [1, 8]: 40 µg/mL (≈ 67.6 µM) | Supersaturated concentration of analog/polymer dispersions in SIF at 37° C. (t = 5 min) [2, 9]: 0.234 mg/ml | Fold increase relative to equilibrium solubility [2, 10]: 5 x

SMILES: CO[C@H]1/C=C\C=C(/C)C(=O)NC2=CC(=O)C(N)=C(C[C@@H](C)C[C@H](OC)[C@H](O)[C@@H](C)/C=C(\C)[C@@H]1OC(N)=O)C2=O [Crystalline 17-AG, 17-amino-geldanamycin]
exposure / oral bioavailability (in words) ([6]; single oral capsule): very low oral bioavailability | Plasma levels of 17-AG following dosing ([6]; uncoated HPMC capsule): below quantifiable limits | Crystalline 17-AG Equilibrium Solubility ([1]; SIF pH 6.8, 0% PVP, 37° C.): 4.1 µg/mL | Crystalline 17-AG Equilibrium Solubility ([1]; SIF pH 6.8, 0.5% PVP, 37° C.): 5.9 µg/mL | Crystalline 17-AG Equilibrium Solubility ([1]; SIF pH 6.8, 1.0% PVP, 37° C.): 6.5 µg/mL | Crystalline 17-AG Equilibrium Solubility ([1]; SIF pH 6.8, 2.5% PVP, 37° C.): 8.7 µg/mL | increase of equilibrium solubility of crystalline 17-AG ([1]; SIF pH 6.8, 5% PVP vs 0% PVP): ~3 fold | Crystalline 17-AG Equilibrium Solubility ([1]; SIF pH 6.8, 5.0% PVP, 37° C.): 11.2 µg/mL

SMILES: CO[C@H]1/C=C\C=C(/C)C(=O)NC2=CC(=O)C(N)=C(C[C@@H](C)C[C@H](OC)[C@H](O)[C@@H](C)/C=C(\C)[C@@H]1OC(N)=O)C2=O [EtOAc Solvate of 17-AG, 17-amino-geldanamycin]
exposure after oral dosing (in words) [7]: low exposure

SMILES: CO[C@H]1/C=C\C=C(/C)C(=O)NC2=CC(=O)C(N)=C(C[C@@H](C)C[C@H](OC)[C@H](O)[C@@H](C)/C=C(\C)[C@@H]1OC(N)=O)C2=O [amorphous 17-AG, 17-amino-geldanamycin]
exposure after oral dosing (in words) [7]: significant exposure
